Source: patent US5597829A, “Lactone stable formulation of camptothecin and methods for uses thereof” (priority 1994, dated 1997)
“Also recorded” adds a separate entry of the source. Like-named read-outs stand apart in the source and are kept apart here.

How the values were obtained:
[1] = cited from earlier work
[2] = Phase I pharmacokinetics: conversion of CPT-11 into HECPT; assay type: in vivo, human; details: per/mg basis, from mean peak plasma concentrations
[3] = cited from earlier work; remark: listed apart in the source
[4] = system: xenografts of human tumors; details: nude mice; cited from earlier work
[5] = mice; cited from earlier work
[6] = cited from earlier work; remark: listed apart in the source
[7] = 5-day continuous intravenous infusion; cited from earlier work
[8] = single dose I.V., cited from earlier work
[9] = carboxylate form; cited from earlier work
[10] = similar solutions; cited from earlier work
[11] = cited from earlier work; remark: listed apart in the source
[12] = cited from earlier work; remark: listed apart in the source
[13] = cited from earlier work; remark: listed apart in the source
[14] = system: malignant melanoma; details: cited from earlier work
[15] = 24 hours after, once daily ×5, 6.5-20 mg/m^2 /day; cited from earlier work
[16] = human, in vivo; cited from earlier work
[17] = Masuda et al, refractory or relapsed small cell lung cancer, 100 mg/m^2 weekly
[18] = Negoro et al, small cell lung cancer, 100 mg/m^2 weekly, 41 pts
[19] = Shimada et al, colon cancer, 100 mg/m^2 /week or 150 mg/m^2 /Q 2 wks
[20] = Takeuchi et al, cervical cancer, 69 pts
[21] = 5-day course (27 patients), 4 wks
[22] = 5-day course (27 patients), 8 wks
[23] = 5-day course (27 patients), 12 wks
[24] = 5-day course, 15 mg/m^2 × 5, 9 treated
[25] = 5-day course, 17 mg/m^2 × 5, 5 treated
[26] = 5-day course, 20 mg/m^2 × 5, 10 treated
[27] = single-dose (34 patients), 3 wks
[28] = single-dose (34 patients), 6 wks
[29] = single-dose (34 patients), 9 wks
[30] = single-dose (34 patients), 12 wks
[31] = single-dose, 110 mg/m^2, 2 treated
[32] = single-dose, 120 mg/m^2, 7 treated
[33] = single-dose, 180 mg/m^2, 9 treated

## CC[C@@]1(O)C(=O)OCc2c1cc1n(c2=O)Cc2cc3cc4c(cc3nc2-1)OCO4 [10,11 methylene dioxycamptothecin]
[1]
  solubility in water: relatively insoluble in water

## CCc1c2c(nc3ccc(OC(=O)N4CCC(N5CCCCC5)CC4)cc13)-c1cc3c(c(=O)n1C2)COC(=O)[C@]3(O)CC [CPT-11, 7-Ethyl-10-[4-(1-piperidino)-1-piperidino]Carbonyloxy-Camptothecin]
[2]
  administered CPT-11 converted into HECPT: 1.5% to 9
[3]; Clavel et al, 90 min QDx3 Q21 days, 115 mg/m^2 /d (33-115), 37 pts
  Toxicity (* dose limiting): Neutropenia*; also recorded: diarrhea; also recorded: nausea; also recorded: vomiting; also recorded: alopecia
[3]; Clavel et al, Breast, 37 pts
  partial responses (PR): 1 PR
[3]; Clavel et al, Mesothelioma, 37 pts
  partial responses (PR): 1 PR
[3]; Culine et al, 90 min Q21 days, 150 mg/m^2 /wk (50-150), 59 pts
  Toxicity (* dose limiting): Neutropenia*; also recorded: diarrhea*; also recorded: vomiting; also recorded: alopecia; also recorded: fatigue; also recorded: stomatitis
[3]; Culine et al, cervix, 59 pts
  partial responses (PR): 1 PR
[3]; Culine et al, esophagus, 59 pts
  partial responses (PR): 1 PR
[3]; Culine et al, ovarian, 59 pts
  partial responses (PR): 1 PR
[3]; Culine et al, renal, 59 pts
  partial responses (PR): 1 PR
[3]; Negoro et al, 30 min infusion weekly, 100 mg/m^2 (50-150), 17 pts
  Toxicity (* dose limiting): Neutropenia* and Diarrhea* and N/V and alopecia and liver
[3]; Negoro et al, NS CLC, 17 pts
  partial responses (PR): 2 PRs
[3]; Ohe et al, 36 pts
  responses by tumor type: None
[3]; Ohe et al, 120 hr CI Q3 wks, 40 mg/m^2 /d (5-40), 36 pts
  Toxicity (* dose limiting): Diarrhea*; also recorded: nausea; also recorded: vomiting; also recorded: thrombocytopenia; also recorded: anemia; also recorded: liver
[3]; Phase I and Phase II trials
  major reported, dose-limiting toxicities: Neutropenia and diarrhea
[3]; Rothenberg et al, Colon Ca, 32 pts
  partial responses (PR): 2 PRs
[3]; Rothenberg et al, QWx4 Q42 days, 180 mg/m^2 /wk (50-180), 32 pts
  Toxicity (* dose limiting): Diarrhea*; also recorded: Neutropenia; also recorded: nausea; also recorded: vomiting; also recorded: alopecia
[3]; Rowinsky et al, 90 min infusion Q21 day, 240 mg/m^2 (100-345), 32 pts
  Toxicity (* dose limiting): Neutropenia* and vomiting and diarrhea and abd. and flushing
[3]; Rowinsky et al, Cervix Ca, 32 pts
  partial responses (PR): 1 PR
[3]; Rowinsky et al, Colon Cancer, 32 pts
  partial responses (PR): 1 PR
[4]
  dependence of tumor sensitivity on ability to produce HECPT: independent of their ability to produce HECPT
[5]
  plasma concentration of HECPT after CPT-11 compared to after HECPT: maintained longer after CPT-11 administration than after treatment with HECPT
[6]; Fukuoka et al, untreated non small cell lung cancer, 100 mg/m^2
  partial responses: 23/72
[6]; [17]
  Response Rate: 47%
  partial responses: 7/15
[6]; [18]
  Response Rate: 33.3%
  complete responses: 2 CRs
  partial responses: 7 PRs
[6]; Negoro et al, small cell lung cancer
  N/V: 61.5%
[6]; Ohno et al, 62 pts
  Gastrointestinal toxicity: 76%
  Reported Toxicities: Thrombocytopenia
[6]; Ohno et al, leukemia/lymphoma, 20 mg/m^2 bid x7
  Response Rate: 25 % RR
[6]; Ohno et al, leukemia/lymphoma, 40 mg/m^2 Q0x5
  partial response rate: 34 % PR
[6]; Ohno et al, leukemia/lymphoma, 200 mg Q3
  Response: No resp.
[6]; Shimada et al, 17 pts
  N/V: 35%
[6]; [19]
  Response Rate: 46%
  partial responses: 6/17
[6]; [20]
  Response Rate (RR): 23.6%
  complete responses: SCR
  partial responses: 8 PR
[6]; Takeuchi et al, cervical cancer
  N/V: 51%
[6]; in vivo
  Alopecia: 38.1%
  Diarrhea: 39.1%
  alopecia: 40.0%
  pneumonitis: 12.5
[7]
  conversion of CPT-11 to HECPT: saturable process
[8]; 50 mg/m^2
  Fractional amount of lactone species, CpMax based: 0.51
[8]; 80 mg/m^2
  Fractional amount of lactone species, CpMax based: 0.44
[8]; 100 mg/m^2
  Fractional amount of lactone species, CpMax based: 0.53
[8]; 125 mg/m^2
  Fractional amount of lactone species, CpMax based: 0.55
[8]; 150 mg/m^2
  Fractional amount of lactone species, CpMax based: 0.42
[8]; 180 mg/m^2
  Fractional amount of lactone species, CpMax based: 0.42
[8]
  overall fractional concentration of the lactone species over dose range: fairly constant

## CC[C@@](O)(C(=O)O)c1cc2n(c(=O)c1CO)Cc1cc3ccccc3nc1-2 [carboxylate form of CPT]
[9]
  reduction of antitumor activity: at least 10 fold

## COc1cc([C@@H]2c3cc4c(cc3[C@@H](O[C@@H]3O[C@@H]5CO[C@@H](C)O[C@H]5[C@H](O)[C@H]3O)[C@H]3COC(=O)[C@H]23)OCO4)cc(OC)c1O [etoposide]
[10]
  bioavailability following oral administration relative to intravenous: substantially equivalent

## sodium salt of camptothecin [CPT sodium]
[11]; first 48 hours, iv
  mean urine recovery of CPT: 17.4%
  urine recovery of CPT, range: 3.6-38.9%
[11]; iv, 2880 min
  mean urine recovery of CPT excluding the 5 patients with impaired excretion: 22.8%
[11]; moderately dehydrated patients
  sterile hemorrhagic cystitis: 3 patients
[12]; doses of 20 to 30 mg/m^2
  Bladder toxicity, dose limiting: three
[12]; doses of 44 and 30 mg/m^2
  Bladder toxicity, additional patients: two
[12]; eight patients with measurable disease, 5-day courses
  clinical benefit: No clinical benefit was observed
[12]; human, in vivo
  cystitis as nonhematologic toxic effect: Cystitis was the most prominent nonhematologic toxic effect
  major dose-limiting toxic effect: Reversible leukopenia
[12]; total dose of 100 mg/m^2
  prolonged leukopenia after daily treatment: four
[12]; weekly courses
  clinical responses: two
[13]; 5-Day Course, P < 0.05
  Cystitis: 48 % of 27 Patients
[13]; [21]
  Objective results: Improved: 1 patients
  Objective results: Stable: 12 patients
  Objective results: Worse: 14 patients
[13]; [22]
  Objective results: Stable: 7 patients
  Objective results: Worse: 20 patients
[13]; [23]
  Objective results: Stable: 6 patients
  Objective results: Worse: 21 patients
[13]; 5-day course, 11 mg/m^2 × 5, 2 treated
  Cystitis, No. of Patients: 1 No. of Patients
[13]; [24]
  Cystitis, No. of Patients: 4 No. of Patients
  Diarrhea, No. of Patients: 1 No. of Patients
[13]; [25]
  Cystitis, No. of Patients: 2 No. of Patients
  Diarrhea, No. of Patients: 4 No. of Patients
[13]; [26]
  Cystitis, No. of Patients: 6 No. of Patients
  Diarrhea, No. of Patients: 4 No. of Patients
[13]; 5-day course, 22 mg/m^2 × 5, 1 treated
  Diarrhea, No. of Patients: 1 No. of Patients
[13]; Single Dose
  Cystitis: 24 % of 34 Patients
[13]; after 2 months (8 or 9 weeks), both large bowel cancer
  partial objective improvement: two
[13]; at 3 months, 61 patients
  improvement: none showed improvement
[13]; at 3 wks only
  25%-50% response: 3 patients
[13]; higher doses
  persistence of severe diarrhea: ≤ 4 weeks
[13]; human, in vivo
  onset of cystitis: 7 to 10 days
[13]; [27]
  Objective results: Improved: 4 patients
  Objective results: Stable: 17 patients
  Objective results: Worse: 13 patients
[13]; [28]
  Objective results: Improved: 2 patients
  Objective results: Stable: 11 patients
  Objective results: Worse: 21 patients
[13]; [29]
  Objective results: Improved: 2 patients
  Objective results: Stable: 8 patients
  Objective results: Worse: 24 patients
[13]; [30]
  Objective results: Stable: 6 patients
  Objective results: Worse: 28 patients
[13]; single-dose, 100 mg/m^2, 6 treated
  Cystitis, No. of Patients: 2 No. of Patients
[13]; [31]
  Cystitis, No. of Patients: 1 No. of Patients
  Diarrhea, No. of Patients: 1 No. of Patients
[13]; [32]
  Cystitis, No. of Patients: 2 No. of Patients
  Diarrhea, No. of Patients: 4 No. of Patients
[13]; [33]
  Cystitis, No. of Patients: 3 No. of Patients
  Diarrhea, No. of Patients: 2 No. of Patients
[14]; 90-360 mg/m^2 every 2 weeks, fifteen patients
  50% or greater decrease in tumor diameter: None
[14]; fifteen patients
  myelosuppression: 11 patients
[14]; human, in vivo
  toxic effects: nausea and vomiting, alopecia, diarrhea, and hemorrhagic cystitis
[14]; no clinical benefit, fifteen patients
  less pronounced transient tumor regression: three
[15]
  relation of plasma CPT levels to dose: little relation to the dose given
[16]
  toxicity in clinical trials: unpredictable and severe myelosuppression, gastrointestinal toxicity, hemorrhagic cystitis, and alopecia
